Experimental data reported in patent US9737602B2, “Carotenoid particles and uses thereof” (IP SCIENCE LIMITED, priority 2011, dated 2017).

What was measured:
[1] = Clinical trial in CHD patients: total serum cholesterol; format: in vivo, human
Experimental: (§1) 20 Coronary Heart Disease (CHD) patients who were positive for anti-Chlamydia IgG and hypercholesterolaemia were identified. These patients were randomised in 4 groups of 5 patients, and each of them received daily either in: • 1st group—7 mg of lycopene supplement (in 70 mg of tomato oleoresin), or • 2nd group—[…] of WP, or • 3rd group—mechanical mixture of 7 mg of lycopene (in 70 mg of tomato oleoresin), and 70 mg of WP, or • 4th group—WP-Lycosome comprising of 7 mg of lycopene (in 70 mg of tomato oleoresin) and 70 mg of WP.
(§2) Serum anti-Chlamydia IgG and total serum cholesterol were measured after 4 weeks.

Chlamydia pneumoniae = experiment: Clinical trial in CHD patients: serum anti-Chlamydia IgG (IgG-ELISA); format: in vivo, human; details: for Chlamydia pneumoniae load in IgG-ELISA, ELISA reading: below 0.300-0.400 is considered negative
Experimental: as §1, §2

clinical = format: in vivo, human
Experimental: as §1

[2] = Pharmacokinetic study on volunteers: unmodified trans-resveratrol in blood; format: in vivo; details: human, serum, po, 100 mg, 100 mg trans-Resveratol oral, individual volunteers ID 1, 2, read-out: AUC for 24 hours
Experimental: The group of 5 volunteers comprised of 2 female and 3 male clinically healthy Caucasian persons, age between 23 and 35 years. They were asked, before commencing this experiment, to go for 3-4 days “wash-out”, when consumption of any grape, wine, peanut, chocolate and other products which might contain them.
Blood samples were taken from their median cubital or cephalic veins at the baseline point. […]
After taking blood its serum was separated, aliquoted and stored at −80° C. for further testing.

[3] = difference after 4 weeks of administration

Structure (SMILES)	Total serum Cholesterol ([1]; 0 w) [mmol/L]	Total serum Cholesterol ([1]; 4 w) [mmol/L]	reduction of serum cholesterol ([1]; after 4 weeks) [mmol/L]	Total serum Cholesterol, Δ [1, 3] [mmol/L]	number of sero-positive patients (Chlamydia pneumoniae; 0 w)	Chlamydia pneumoniae load in IgG-ELISA, ELISA reading (Chlamydia pneumoniae; 0 w, CHD patients)	number of sero-positive patients (Chlamydia pneumoniae; 1 w)	number of sero-positive patients (Chlamydia pneumoniae; 2 w)	number of sero-positive patients (Chlamydia pneumoniae; 3 w)	time by which all patients were sero-negative / anti-Chlamydia IgG cleared from serum (Chlamydia pneumoniae; 4-week trial)	number of sero-positive patients (Chlamydia pneumoniae; 4 w)	Chlamydia pneumoniae load in IgG-ELISA, ELISA reading (Chlamydia pneumoniae; 4 w of daily administration)	effect on level of Chlamydia infection (specific IgG), in words (Chlamydia pneumoniae; CHD patients, daily for 4 weeks)	Total serum Lycopene, Δ (clinical; [3])	concentration at 0 w (clinical; human, in vivo) [ng/mL]	concentration at 4 w (clinical; human, in vivo) [ng/mL]	AUC [2] [ng·h/mL]
CC(C)=CCC/C(C)=C/C=C/C(C)=C/C=C/C(C)=C/C=C/C=C(C)/C=C/C=C(C)/C=C/C=C(\C)CCC=C(C)C [GA Lycopene, lycopene]	5.4 ± 0.23	4.7 ± 0.21	0.7	-0.7	10	0.997 ± 0.098	(10)	(4)	(2)	in the last week of the trial	0	0.288 ± 0.043	some ability to reduce Chlamydia infection	+116 ng/ml	179 ± 21	295 ± 23	–
Oc1ccc(/C=C/c2cc(O)cc(O)c2)cc1 [Resveratrol, 3,5,4′-trihydroxy-trans-stilbene]	–	–	–	–	–	–	–	–	–	–	–	–	–	–	–	–	432
